Data from patent US20140088144A1, “INHIBITING MICROBIAL INFECTIONS” (THE UNIVERSITY OF KANSAS, priority 2012, published 2014).

Key:
[1] = tested on: gapA; test: Shigella gene expression qRT-PCR, internal control gapA; type: cell-based, S. flexneri; conditions: for Average ΔΔCt / Ct / RQ (2^−ΔΔCt) / ΔΔCt^2 (normalized to rrsA): gapA, example data
Method: Real-time quantitative reverse transcription PCR (qRT-PCR) was performed to test the effects of SE-1 on the expression of the VirF regulated genes virB, icsA, icsB and ipaB. The gapA and rrsA transcripts were used as internal controls. These are constitutively expressed Shigella genes commonly used to normalize mRNA levels. S. flexneri strain SME4331, which carries a null mutation in ipgD (ipgD), was grown at 30° C. overnight in TSB with ampicillin, diluted into the same medium to an OD600 of ˜0.1, and 1 ml aliquots further grown at 30° C. (DMSO only) or at 37° C. (SE-1 at 20 or 40 μM, or DMSO only, all 0.3% DMSO). Cells were grown to an OD600 of 1.0 (˜2.5 h) and RNA was isolated using an RNeasy MiniElute Cleanup Kit (Qiagen, Germantown, Md.), with DNA contamination eliminated using a Turbo DNase Kit (Ambion, Austin, Tex.). Complementary DNA (cDNA) was synthesized by random priming using a cDNA Reverse Transcription Kit (Applied Biosystems, Foster City, Calif.). Primers were tested for PCR specificity using genomic DNA template to ensure a single amplicon of the expected size for each primer pair, and validated using 5-fold dilutions of cDNA (2000 to 0.0256 ng) to ensure a linear plot of cycle threshold (Ct) versus cDNA concentration. Validated primer sets were used to test mRNA profiles in reactions that contained 10 ng of cDNA, 10 μl of SYBR green master mix (Applied Biosystems), specific primers (0.5 μM each) and water to a final volume of 20 μl, using a Step One Plus Real-Time PCR System (Applied Biosystems). The data was analyzed using the 2^−ΔΔCt method, and also by Applied Biosystems real-time analysis software. […] In brief, ΔΔCt values [ΔΔCt=(Ct,Target−Ct,Internal Control)SE-1−(Ct,Target−Ct,Internal Control)no SE-1] were separately obtained for each sample relative to two internal controls, gapA and rrsA. The ΔΔCt values relative to the two internal controls for each sample were averaged and then used to calculate the relative expression levels (2^−ΔΔCt). As a control, we also normalized each internal control to the other internal control. Control reactions used templates generated without reverse transcriptase to ensure low genomic DNA contamination. To ensure that products were not likely to be due to primer dimer artifacts, additional control samples were performed in which reaction mixtures contained primers alone (no template).

[2] = target: T1, LacI (Escherichia coli, UniProt P03023); test: EMSA in vitro DNA binding by LacI; type: biochemical, E. coli; conditions: highest concentrations (dilutions starting at 650 μM)
T1 construct: made in house; host or cells: E. coli
T1 sequence (P03023 whole entry): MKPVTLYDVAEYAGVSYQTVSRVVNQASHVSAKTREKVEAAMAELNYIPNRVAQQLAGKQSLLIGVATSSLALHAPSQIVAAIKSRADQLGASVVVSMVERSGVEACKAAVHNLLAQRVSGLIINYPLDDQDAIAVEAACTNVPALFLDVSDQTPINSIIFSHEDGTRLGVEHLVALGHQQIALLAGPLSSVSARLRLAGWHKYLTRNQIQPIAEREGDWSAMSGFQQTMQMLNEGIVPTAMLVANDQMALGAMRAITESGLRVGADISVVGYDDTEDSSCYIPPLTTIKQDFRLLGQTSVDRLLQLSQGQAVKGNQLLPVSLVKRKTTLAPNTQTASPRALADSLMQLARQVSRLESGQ
Description: All proteins for this study were expressed in E. coli. Untagged CRP was purified by Ni^2+-affinity chromatography as described. Lad protein was purified by ammonium sulfate precipitation and phosphocellulose column chromatography as described. RhaS-GB1^201b and GB1^b-RhaR were purified by Ni^2+-affinity chromatography. Briefly, plasmids derived from pET21 and expressing RhaS-GB1^201b and GB1^b-RhaR were transformed into competent cells of strains Acella™ (MoBiTec, Gottingen, Germany) or ArcticExpress(DE3) (Agilent Technologies, Santa Clara Calif.), respectively. The cells were grown in 1 liter TY plus ampicillin and rhamnose. Gentamycin was also added for GB1^b-RhaR. The cells were grown to OD600 of 0.5, transferred to a 15° C. shaker, 0.1 mM IPTG was added, and then incubated overnight. Cells were harvested by centrifugation and then resuspended in 30 mL of cold binding buffer (20 mM Tris, 500 mM NaCl, 5 mM imidazole, pH 7.9) plus L-rhamnose. […]
IRD700- and DY682-labeled oligos were from Eurofins MWG Operon. […] EMSA gels were imaged using an Odyssey infrared imager (LI-COR, Lincoln, Nebr.), and quantified using the Odyssey software, version 3.0.30. […] Inhibition values were calculated and graphs were drawn as for in vivo dose-response experiments.

CCCCN1C=C(c2ccc3ccccc3n2)C(C[N+](=O)[O-])c2ccccc21 (stereo not shown) [Compound 1, 1-butyl-4-(nitromethyl)-3-quinolin-2-yl-4H-quinoline]
expression of control gene gapA ([1]; 40 μM SE-1, normalized to rrsA): no decrease | Average ΔΔCt ([1]; SE-1 20 μM): 1 | Ct ([1]; SE-1 20 μM): 27.33 | RQ (2^−ΔΔCt) ([1]; SE-1 20 μM): 0.5 | ΔΔCt^2 (normalized to rrsA) ([1]; SE-1 20 μM): 1 | Average ΔΔCt ([1]; SE-1 40 μM): −0.69 | Ct ([1]; SE-1 40 μM): 26.76 | RQ (2^−ΔΔCt) ([1]; SE-1 40 μM): 0.62 | ΔΔCt^2 (normalized to rrsA) ([1]; SE-1 40 μM): −0.69 | LacI DNA binding retained [2]: approximately 70%
